US20220033434A1, “ANDROGEN RECEPTOR NUCLEIC ACIDS AND USES THEREOF” (Avidity Biosciences, Inc., priority 2016, published 2022)
In the oligonucleotide strings, read from the 5' end, every base follows the letter of its sugar. An asterisk marks phosphorothioate; unmarked linkages are phosphodiester. Other units and linkages are bracketed, terminal groups are in braces. A string of capitals states the bases alone. d = 2'-deoxy (DNA); m = 2'-O-methyl; f = 2'-fluoro

Tests used:
Type in all cases: cell-based, human
[1] = system: AR FL (full length AR T877A LBD mutant); test: AR protein knock-down by Western blot after siRNA transfection in LNCaP cells: AR FL; conditions: 5 nM siRNA, 72 h post transfection, compared to controls
Experimental: (§1) In some instances, a set of AR siRNAs were identified that were predicted to be specific in human and non-human primates (NHP) and cross-reactive with NHPs but not rodent AR mRNA. To identify AR siRNAs that regulate both full length AR and clinically relevant AR splice variants, the search for AR siRNAs was focused primarily, but not exclusively, on exons 1, 2 and 3 of the AR gene, which are common to most AR isoforms. The resulting set of 50 AR siRNAs (Tables 1-3) was assessed in two prostate cancer lines that express high levels of either clinically relevant AR splice variants (22RV1, ATCC) or a full length AR T877A LBD mutant (LNCaP, ATCC). The response of LNCaP tumors in xenograft models to AR antagonists is known to correlate well with clinical responses.
(§2) To monitor their ability to downregulate various AR isoforms, each siRNA was formulated at a single final concentration of 5 nM with a commercially-available transfection reagent (Lipofectamine RNAiMAX, Life Technologies) according to the manufacturer's “forward transfection” instructions. At 50 h (22RV1) and 72 h (LNCaP) post transfection, cells were harvested, and lysed in RIPA buffer (Pierce) supplemented with HALT protease inhibitors (Pierce) using standard procedures. The protein concentration was determined using a BCA protein concentration kit (Pierce). To monitor AR levels in these lysates, proteins (30 ug/lane) were separated by PAGE on BOLT 4-12% Bis-Tris PA gels (Life Technologies), transferred to nitrocellulose using an iBlot dry blot system (Thermo Fisher), and probed with specific antibodies against a region of the N-terminal domain of human AR that is common in known clinically relevant splice variants (N20, Santa Cruz Biotech). A second antibody against α-Tubulin was used as control (P16, Santa Cruz Biotech). Levels of these proteins in the respective cell lysates were quantified on an Odyssey imaging system (LICOR) using appropriate secondary antibodies linked to IRDyes (800CW, 680RD).

[2] = system: AR FL(1); test: AR protein knock-down by Western blot after siRNA transfection in 22RV1 cells: AR FL(1); conditions: 5 nM siRNA, 50 h post transfection, compared to controls
Experimental: as §1, §2

[3] = system: AR-SV(2); test: AR protein knock-down by Western blot after siRNA transfection in 22RV1 cells: AR-SV(2); conditions: 5 nM siRNA, 50 h post transfection, compared to controls
Experimental: as §1, §2

[4] = system: AR-SV(3); test: AR protein knock-down by Western blot after siRNA transfection in 22RV1 cells: AR-SV(3); conditions: 5 nM siRNA, 50 h post transfection, compared to controls
Experimental: as §1, §2

Row | Substance | % KD AR Protein LNCaP AR FL [1] [%] | % KD AR Protein 22RV1 AR FL(1) [2] [%] | % KD AR Protein 22RV1 AR-SV(2) [3] [%] | % KD AR Protein 22RV1 AR-SV(3) [4] [%]
1 | XD-01819: AR siRNA with chemical modification, Id # 2185; sense X05333 (SEQ ID NO: 163), antisense X05334 (SEQ ID NO: 164) (sense mCmUfGmCfGmUfAmCfCmAfGmAfGmUfCmGfCmGfAdT*dT; antisense fUfCmGfCmGfAmCfUmCfUmGfGmUfAmCfGmCfAmGdT*dT) | 92 | 15 | 47 | 45
2 | XD-01830: AR siRNA with chemical modification, Id # 2824; sense X05355 (SEQ ID NO: 185), antisense X05356 (SEQ ID NO: 186) (sense mGmUfCmAfCmUfAmUfGmGfAmGfCmUfCmUfCmAfCdT*dT; antisense fGfUmGfAmGfAmGfCmUfCmCfAmUfAmGfUmGfAmCdT*dT) | 90 | 75 | 72 | 76
3 | XD-01841: AR siRNA with chemical modification, Id # 2936; sense X05377 (SEQ ID NO: 207), antisense X05378 (SEQ ID NO: 208) (sense mCmCfGmAfAmGfGmAfAmAfAmAfUmUfGmUfCmCfAdT*dT; antisense fUfGmGfAmCfAmAfUmUfUmUfUmCfCmUfUmCfGmGdT*dT) | 99 | 85 | 85 | 74
4 | XD-01832: AR siRNA with chemical modification, Id # 2920; sense X05359 (SEQ ID NO: 189), antisense X05360 (SEQ ID NO: 190) (sense mGmCfAmCfUmAfUmUfGmAfUmAfAmAfUmUfCmCfGdT*dT; antisense fCfGmGfAmAfUmUfUmAfUmCfAmAfUmAfGmUfGmCdT*dT) | 92 | 93 | 93 | 73
5 | XD-01861: AR siRNA with chemical modification, Id # 3779; sense X05417 (SEQ ID NO: 247), antisense X05418 (SEQ ID NO: 248) (sense mGmAfGmCfGmUfGmGfAmCfUmUfUmCfCmGfGmAfAdT*dT; antisense fUfUmCfCmGfGmAfAmAfGmUfCmCfAmCfGmCfUmCdT*dT) | 99 | 90 | 11 | 51
6 | XD-01824: AR siRNA with chemical modification, Id # 2741; sense X05343 (SEQ ID NO: 173), antisense X05344 (SEQ ID NO: 174) (sense mUmGfCmCfAmGfGmGfAmCfCmAfUmGfUmUfUmUfGdT*dT; antisense fCfAmAfAmAfCmAfUmGfGmUfCmCfCmUfGmGfCmAdT*dT) | 45 | 3 | −32 | −44
7 | XD-01857: AR siRNA with chemical modification, Id # 3473; sense X05409 (SEQ ID NO: 239), antisense X05410 (SEQ ID NO: 240) (sense mCmCfGmAfAmUfGmAfGmGfCmAfCmCfUmCfUmCfUdT*dT; antisense fAfGmAfGmAfGmGfUmGfCmCfUmCfAmUfUmCfGmGdT*dT) | 100 | 79 | −7 | 1
8 | XD-01850: AR siRNA with chemical modification, Id # 3107; sense X05395 (SEQ ID NO: 225), antisense X05396 (SEQ ID NO: 226) (sense mCmAfUmUfGmAfAmGfGmCfUmAfUmGfAmAfUmGfUdT*dT; antisense fAfCmAfUmUfCmAfUmAfGmCfCmUfUmCfAmAfUmGdT*dT) | 82 | 86 | 14 | 5
